Experimental data: patent publication US20260042764A1, “COMPOSITIONS AND METHODS FOR INHIBITION OF KRAS” (TheRas, Inc., priority 2022, published 2026)

Assays:
[1] = biological target: T1, Avi-KRAS G12V (1-169) GppNHp/RAF1 RBD-3xFLAG (52-151) (Homo sapiens, UniProt P01116, G12V); assay: Raf1-KRAS G12V-GppNHP disruption HTRF assay (Biological Example 1); assay type: binding
T1 construct: Avi-KRAS G12V (1-169)
Procedure, shortened: (§1)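 Protein mix, 1 h RT, 700 rpm; reagent mix, 1 h RT, 700 rpm; HTRF read. Buffer Tris pH 7.5/NaCl/MgCl2/BSA/Tween, 10% DMSO. Output % activity, DMSO = 100%.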

[2] = biological target: T2, Avi-KRAS WT (1-169) GppNHp/RAF1 RBD-3xFLAG (52-151) (Homo sapiens, UniProt P01116); assay: Raf1-KRAS WT-GppNHP disruption HTRF assay (Biological Example 1); assay type: binding
T2 construct: Avi-KRAS WT (1-169)
Procedure, shortened: as §1

[3] = biological target: T3, Avi-KRAS G12D (2-169) GTP/RAF1 RBD-3xFLAG (51-131) (Homo sapiens, UniProt P01116, G12D); assay: Raf1-KRAS G12D-GTP disruption HTRF assay (Biological Example 3); assay type: binding; conditions: KRAS G12D, GTP-loaded
T3 construct: Avi-KRAS G12D (2-169)
Procedure, shortened: (§2)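 HTRF PPI read-out (ex 320 nm, em 615 nm) after 1 h RT incubation with shaking; data as % activity vs DMSO (100%), IC50 from curve fit. Complex 50 nM, RBD reagent 75 nM; compound 30-0.005 μM, 3-fold.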

[4] = biological target: T4, Avi-KRAS G12V (2-169) GTP/RAF1 RBD-3xFLAG (51-131) (Homo sapiens, UniProt P01116, G12V); assay: Raf1-KRAS G12V-GTP disruption HTRF assay (Biological Example 3); assay type: binding; conditions: KRAS G12V, GTP-loaded
T4 construct: Avi-KRAS G12V (2-169)
Procedure, shortened: as §2

SW620 cells (KRAS G12V) = assay: Cell-based pERK HTRF assay in SW620 cell (Biological Example 4)
Procedure, shortened: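 SW620 seeded in RPMI/10% FBS, next day dosed 4 h (top 1 μM, half-log, 9 pts, 0.25% DMSO). Lysed, pERK by d2/Eu cryptate HTRF, 4–24 h RT, 615 nm read.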

[5] = KRAS G12V, GppNHp-loaded, class symbols
[6] = KRAS WT, GppNHp-loaded, class symbols
[7] = Homo sapiens, SW-620, SW620 (KRAS G12V) cells
[8] = Homo sapiens, SW-620, SW620 (KRAS G12V) cells, pERK HTRF, class symbols
[9] = Homo sapiens, SW-620, SW620 (KRAS G12V) cells, pERK HTRF
[10] = KRAS G12V, GppNHp-loaded, Table 11
[11] = KRAS WT, GppNHp-loaded, Table 11
[12] = SW620 (KRAS G12V) cells, pERK HTRF

T1 sequence (P01116 1-169 isoform P01116-2 G12V): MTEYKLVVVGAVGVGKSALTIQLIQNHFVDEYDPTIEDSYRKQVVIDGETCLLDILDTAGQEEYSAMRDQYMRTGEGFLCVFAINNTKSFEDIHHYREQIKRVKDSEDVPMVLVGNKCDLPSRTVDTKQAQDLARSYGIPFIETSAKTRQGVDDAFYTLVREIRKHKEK
T2 sequence (P01116 1-169 isoform P01116-2): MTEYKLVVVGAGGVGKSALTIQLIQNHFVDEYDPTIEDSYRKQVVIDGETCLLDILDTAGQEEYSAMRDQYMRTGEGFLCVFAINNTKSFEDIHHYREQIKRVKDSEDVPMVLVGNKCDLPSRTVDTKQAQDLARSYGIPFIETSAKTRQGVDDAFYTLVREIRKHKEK
T4 sequence (P01116 2-169 isoform P01116-2 G12V): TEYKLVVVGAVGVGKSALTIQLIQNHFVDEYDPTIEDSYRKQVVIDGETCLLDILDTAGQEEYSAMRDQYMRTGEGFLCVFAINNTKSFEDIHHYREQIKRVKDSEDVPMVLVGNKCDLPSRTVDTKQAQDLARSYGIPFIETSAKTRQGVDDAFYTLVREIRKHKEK
T3 sequence (P01116 2-169 isoform P01116-2 G12D): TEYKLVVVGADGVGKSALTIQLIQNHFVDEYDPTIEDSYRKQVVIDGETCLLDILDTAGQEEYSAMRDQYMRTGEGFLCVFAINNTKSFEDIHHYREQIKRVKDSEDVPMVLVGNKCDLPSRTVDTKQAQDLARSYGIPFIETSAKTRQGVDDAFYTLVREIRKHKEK

Structure (SMILES)	IC50 [1, 5]	IC50 [2, 6]	IC50 [3]	IC50 [4]	IC50 (SW620 cells (KRAS G12V); [7])	IC50 (SW620 cells (KRAS G12V); [8])	IC50 ([1]; KRAS G12V-GppNHp/RAF1 RBD HTRF)	IC50 ([2]; KRAS WT-GppNHp/RAF1 RBD HTRF)	IC50 (SW620 cells (KRAS G12V); [9])	IC50 [1, 10]	IC50 [2, 11]	IC50 (SW620 cells (KRAS G12V); [12])	IC50 (SW620 cells (KRAS G12V); SW620 (KRAS G12V) cells)
CCN(c1nc(OC[C@@]23CCCN2C[C@H](F)C3)nc2c(F)c(-c3ccc(F)c4sc(N)c(C#N)c34)c(C(F)(F)F)cc12)[C@H]1CCN(C(=O)N2CC(OC)C2)C1 (atropisomer, axis not shown) [Compound 607]	< 100 nM	< 100 nM	≤ 100 nM	≤ 100 nM	< 100 nM	< 100 nM	–	–	–	–	–	–	–
CCN(c1nc(OC[C@@]23CCCN2C[C@H](F)C3)nc2c(F)c(-c3ccc(F)c4sc(N)c(C#N)c34)c(C(F)(F)F)cc12)[C@H]1CCN(C(=O)[C@@H]2CCO2)C1 (atropisomer, axis not shown) [Compound 603]	< 100 nM	< 100 nM	≤ 100 nM	≤ 100 nM	< 100 nM	< 100 nM	–	–	–	–	–	–	–
CCN(c1nc(OC[C@@]23CCCN2C[C@H](F)C3)nc2c(F)c(-c3ccc(F)c4sc(N)c(C#N)c34)c(C(F)(F)F)cc12)[C@H]1CC(=O)N2CCC[C@@H]12 (atropisomer, axis not shown; (aS)) [Compound 697, 2-amino-4-((S)-4-(ethyl((1S,7aS)-3-oxohexahydro-1H-pyrrolizin-1-yl)amino)-8-fluoro-2-(((2R,7aS)-2-fluorotetrahydro-1H-pyrrolizin-7a(5H)-yl)methoxy)-6-(trifluoromethyl)quinazolin-7-yl)-7-fluorobenzo[b]thiophene-3-carbonitrile]	< 100 nM	< 100 nM	≤ 100 nM	≤ 100 nM	< 100 nM	< 100 nM	–	–	–	–	–	–	–
N#Cc1c(N)sc2c(F)ccc(-c3c(C(F)(F)F)cc4c(N5CCOCC5)nc(OC[C@@]56CCCN5C[C@H](F)C6)nc4c3F)c12 (single isomer, unassigned) [Compound 198]	–	–	100 to 1000 nM	100 to 1000 nM	< 100 nM	–	–	–	–	100 to 1000 nM	100 to 1000 nM	< 100 nM	–
CCN(c1nc(OC[C@@]23CCCN2C[C@H](F)C3)nc2c(F)c(-c3ccc(F)c4sc(N)c(C#N)c34)c(C(F)(F)F)cc12)[C@H]1C[C@@H](C)N(C(=O)[C@H]2CCO2)C1 (atropisomer, axis not shown) [Compound 752]	100 to 1000 nM	100 to 1000 nM	100 to 1000 nM	100 to 1000 nM	< 100 nM	< 100 nM	–	–	–	–	–	–	–
CCN(c1nc(OC[C@]23CCCN2C[C@H](F)C3)nc2c(F)c(-c3ccc(F)c4sc(N)c(C#N)c34)c(C(F)(F)F)cc12)[C@H]1CCN(C(=O)C(C)C)C1 [Compound 705]	100 to 1000 nM	< 100 nM	100 to 1000 nM	100 to 1000 nM	< 100 nM	< 100 nM	–	–	–	–	–	–	–
CCC(=O)N1CC[C@@H](N(C)c2nc(OC[C@@]34CCCN3C[C@H](F)C4)nc3c(F)c(-c4ccc(F)c5sc(N)c(C#N)c45)c(C(F)(F)F)cc23)[C@H]1C (atropisomer, axis not shown) [Compound 335]	–	–	100 to 1000 nM	100 to 1000 nM	< 100 nM	–	< 100 nM	< 100 nM	–	–	–	< 100 nM	–
Cc1c(C(=O)N(C)C)nn2c1CN(c1nc(OC[C@@]34CCCN3C[C@H](F)C4)nc3c(F)c(-c4ccc(F)c5sc(N)c(C#N)c45)c(C(F)(F)F)cc13)CC2 (atropisomer, axis not shown; (aS)) [Compound 590, 5-((S)-7-(2-amino-3-cyano-7-fluorobenzo[b]thiophen-4-yl)-8-fluoro-2-(((2R,7aS)-2-fluorotetrahydro-1H-pyrrolizin-7a(5H)-yl)methoxy)-6-(trifluoromethyl)quinazolin-4-yl)-N,N,3-trimethyl-4,5,6,7-tetrahydropyrazolo[1,5-a]pyrazine-2-carboxamide]	< 100 nM	< 100 nM	100 to 1000 nM	100 to 1000 nM	–	< 100 nM	–	–	–	–	–	–	< 100 nM
N#Cc1c(N)sc2c(F)ccc(-c3c(C(F)(F)F)cc4c(N5CCCOCC5)nc(OC[C@@]56CCCN5C[C@H](F)C6)nc4c3F)c12 [Compound 232]	–	–	100 to 1000 nM	100 to 1000 nM	< 100 nM	–	–	–	< 100 nM	100 to 1000 nM	100 to 1000 nM	–	–
CCN(c1nc(OC[C@@]23CCCN2C[C@H](F)C3)nc2c(F)c(-c3ccc(F)c4sc(N)c(C#N)c34)c(C(F)(F)F)cc12)[C@H]1CCN(C(=O)C2C[C@@H]2F)C1 (stereo partly drawn) [Compound 692]	< 100 nM	< 100 nM	≤ 100 nM	≤ 100 nM	< 100 nM	< 100 nM	–	–	–	–	–	–	–

Second part, the compound after the results:

IC50 [1, 5]	IC50 [2, 6]	IC50 [3]	IC50 [4]	IC50 (SW620 cells (KRAS G12V); [7])	IC50 (SW620 cells (KRAS G12V); [8])	IC50 ([1]; KRAS G12V-GppNHp/RAF1 RBD HTRF)	IC50 ([2]; KRAS WT-GppNHp/RAF1 RBD HTRF)	IC50 (SW620 cells (KRAS G12V); [9])	IC50 [1, 10]	IC50 [2, 11]	IC50 (SW620 cells (KRAS G12V); [12])	IC50 (SW620 cells (KRAS G12V); SW620 (KRAS G12V) cells)	Structure (SMILES)
< 100 nM	< 100 nM	≤ 100 nM	≤ 100 nM	< 100 nM	< 100 nM	–	–	–	–	–	–	–	CCN(c1nc(OC[C@@]23CCCN2C[C@H](F)C3)nc2c(F)c(-c3ccc(F)c4sc(N)c(C#N)c34)c(C(F)(F)F)cc12)[C@H]1CCN(C(=O)[C@H]2CCO2)C1 (atropisomer, axis not shown) [Compound 577]
< 100 nM	< 100 nM	≤ 100 nM	≤ 100 nM	< 100 nM	< 100 nM	–	–	–	–	–	–	–	CCN(c1nc(OC[C@@]23CCCN2C[C@H](F)C3)nc2c(F)c(-c3ccc(F)c4sc(N)c(C#N)c34)c(C(F)(F)F)cc12)[C@H]1C[C@H](C)N(C(=O)N2CC(OC)C2)C1 (atropisomer, axis not shown) [Compound 764]
–	–	100 to 1000 nM	1000 to 10000 nM	< 100 nM	–	100 to 1000 nM	100 to 1000 nM	< 100 nM	–	–	–	–	CCN(c1nc(OC[C@@]23CCCN2C[C@H](F)C3)nc2c(F)c(-c3ccc(F)c4sc(N)c(C#N)c34)c(C(F)(F)F)cc12)[C@@H]1CCN(C(=O)C(C)C)C1 [Compound 328]
< 100 nM	< 100 nM	100 to 1000 nM	100 to 1000 nM	< 100 nM	< 100 nM	–	–	–	–	–	–	–	CCN1C[C@@H](N(C)c2nc(OC[C@@]34CCCN3C[C@H](F)C4)nc3c(F)c(-c4ccc(F)c5sc(N)c(C#N)c45)c(C(F)(F)F)cc23)CC1=O (atropisomer, axis not shown) [Compound 636]
–	–	100 to 1000 nM	100 to 1000 nM	< 100 nM	–	100 to 1000 nM	100 to 1000 nM	< 100 nM	–	–	–	–	CCN(c1nc(OC[C@@]23CCCN2C[C@H](F)C3)nc2c(F)c(-c3ccc(F)c4sc(N)c(C#N)c34)c(C(F)(F)F)cc12)[C@H]1CCN(C(=O)C2CC2)C1 [Compound 331]
100 to 1000 nM	100 to 1000 nM	100 to 1000 nM	1000 to 10000 nM	< 100 nM	< 100 nM	–	–	–	–	–	–	–	CCN(c1nc(OC[C@@H]2C[C@@H](OC)CN2C)nc2c(F)c(-c3ccc(F)c4sc(N)c(C#N)c34)c(C(F)(F)F)cc12)[C@H]1CCN(C(=O)C(C)C)C1 [Compound 706]
< 100 nM	< 100 nM	≤ 100 nM	≤ 100 nM	< 100 nM	< 100 nM	–	–	–	–	–	–	–	CCN(c1nc(OC[C@@]23CCCN2C[C@H](F)C3)nc2c(F)c(-c3ccc(F)c4sc(N)c(C#N)c34)c(C(F)(F)F)cc12)[C@H]1CCN(C(=O)C2CN(C(C)=O)C2)C1 (atropisomer, axis not shown) [Compound 638]
< 100 nM	100 to 1000 nM	100 to 1000 nM	100 to 1000 nM	< 100 nM	< 100 nM	–	–	–	–	–	–	–	N#Cc1c(N)sc2c(F)ccc(-c3c(C(F)(F)F)cc4c(N5CCn6nc(C(=O)N7CCOCC7)cc6C5)nc(OCC56CCCN5CC(F)C6)nc4c3F)c12 (stereo not drawn) [Compound 646]
–	–	100 to 1000 nM	1000 to 10000 nM	< 100 nM	–	100 to 1000 nM	100 to 1000 nM	< 100 nM	–	–	–	–	[2H]C1([2H])O[C@@H]2C[C@H]1N(c1nc(OC[C@@]34CCCN3C[C@H](F)C4)nc3c(F)c(-c4ccc(F)c5sc(N)c(C#N)c45)c(C(F)(F)F)cc13)C2 [Compound 371]
